Reference: ChEMBL document CHEMBL3351906, “Bioactive triterpenoid saponins and phenolic compounds against glioma cells” (Bioorg Med Chem Lett, 2014)
pIC50: −log10 of the molar value. Activity calls are given as the source filed them. No cut-off for these calls is given here.

How the values were obtained:
U-251 [1] = assay: Inhibition of cell proliferation of human U251 cells assessed as cell viability at 100 uM after 72 hrs by sulforhodamine B assay; type: functional; details: U-251, 72 h, read-out: Activity
C6 [2] = assay: Inhibition of cell proliferation of rat C6 cells assessed as cell viability at 100 uM after 72 hrs by sulforhodamine B assay; type: functional; details: C6, 72 h, read-out: Activity
U-251 [3] = assay: Inhibition of cell proliferation of human U251 cells assessed as cell viability after 72 hrs by sulforhodamine B assay; type: functional, cell-based; details: for pIC50: U-251, 72 h
C6 [4] = assay: Inhibition of cell proliferation of rat C6 cells assessed as cell viability after 72 hrs by sulforhodamine B assay; type: functional, cell-based; details: for pIC50: C6, 72 h
U-87MG ATCC = assay: Inhibition of cell proliferation of human U87MG cells assessed as cell viability after 72 hrs by sulforhodamine B assay; type: functional, cell-based

pIC50 (U-251 [3]) | SMILES | viability at 100 µM (U-251 [1]) [%] | viability at 100 µM (C6 [2]) [%] | inhibition (U-251 [3]) | inhibition (C6 [4]) | inhibition (U-87MG ATCC) | pIC50 (C6 [4])
4.72 | C=C[C@@](C)(O)CC/C=C(\CO)C(=O)OC[C@H]1O[C@@H](OC(=O)[C@]23CCC(C)(C)C[C@H]2C2=CC[C@@H]4[C@@]5(C)CC[C@H](O[C@@H]6O[C@H](CO[C@@H]7OC[C@H](O)[C@H](O)[C@H]7O[C@@H]7OC[C@@H](O)[C@H](O)[C@H]7O)[C@@H](O)[C@H](O)[C@H]6O)C(C)(C)[C@@H]5CC[C@@]4(C)[C@]2(C)C[C@H]3O)[C@H](O[C@@H]2O[C@@H](C)[C@H](O[C@@H]3OC[C@@H](O)[C@H](O[C@@H]4OC[C@@H](O)[C@H](O)[C@H]4O)[C@H]3O)[C@@H](O)[C@H]2O[C@@H]2O[C@H](CO)[C@H](O)[C@H](O)[C@H]2O)[C@@H](O)[C@@H]1O | 28.6 | – | – | – | – | 4.74
4.43 | CC(=O)Oc1ccc(CCOC(=O)CCc2ccc(OC(C)=O)c(OC(C)=O)c2)cc1OC(C)=O | 43.5 | – | – | – | – | 4.89
4.32 | C/C=C(\C)C(=O)O[C@H]1[C@H](O)[C@]2(COC(C)=O)[C@H](O)C[C@]3(C)C(=CC[C@@H]4[C@@]5(C)CC[C@H](O[C@@H]6O[C@H](C(=O)OC)[C@@H](O[C@@H]7O[C@H](CO)[C@@H](O)[C@H](O)[C@H]7O)[C@H](O)[C@H]6O[C@@H]6O[C@H](CO)[C@@H](O)[C@H](O)[C@H]6O)[C@](C)(CO)[C@@H]5CC[C@]43C)[C@@H]2CC1(C)C | 26.2 | – | – | – | – | 4.22
4.35 | C=CC(C)(O)CC/C=C(\CO)C(=O)OC[C@H]1O[C@@H](OC(=O)[C@]23CCC(C)(C)C[C@H]2C2=CC[C@@H]4[C@@]5(C)CC[C@H](O[C@@H]6O[C@H](CO[C@@H]7OC[C@H](O)[C@H](O)[C@H]7O[C@@H]7OC[C@@H](O)[C@H](O)[C@H]7O)[C@@H](O)[C@H](O)[C@H]6O)C(C)(C)[C@@H]5CC[C@@]4(C)[C@]2(C)CC3)[C@H](O[C@@H]2O[C@@H](C)[C@H](O[C@@H]3OC[C@@H](O)[C@H](O[C@@H]4OC[C@@H](O)[C@H](O)[C@H]4O)[C@H]3O)[C@@H](O)[C@H]2O)[C@@H](O)[C@@H]1O (stereo not given in full) | 32.9 | – | – | – | – | 4.50
4.16 | C/C=C(/C)C(=O)O[C@H]1[C@H](O)[C@]2(COC(C)=O)[C@H](O)C[C@]3(C)C(=CC[C@@H]4[C@@]5(C)CC[C@H](O[C@@H]6O[C@H](C(=O)O)[C@@H](O[C@@H]7O[C@H](CO)[C@@H](O)[C@H](O)[C@H]7O)[C@H](O)[C@H]6O[C@@H]6O[C@H](CO)[C@@H](O)[C@H](O)[C@H]6O)[C@](C)(CO)[C@@H]5CC[C@]43C)[C@@H]2CC1(C)C [ISOESCIN IB] | 29.7 | – | – | – | – | 4.11
4.33 | C=C[C@@](C)(O)CC/C=C(\C)C(=O)O[C@H]1[C@H](OC[C@H]2O[C@@H](OC(=O)[C@]34CCC(C)(C)C[C@@H]3C3=CC[C@@H]5[C@@]6(C)CC[C@H](O[C@@H]7O[C@H](CO[C@@H]8OC[C@H](O)[C@H](O)[C@H]8O[C@@H]8OC[C@@H](O)[C@H](O)[C@H]8O)[C@@H](O)[C@H](O)[C@H]7O)C(C)(C)[C@@H]6CC[C@@]5(C)[C@]3(C)C[C@H]4O)[C@H](O[C@@H]3O[C@@H](C)[C@H](O[C@@H]4OC[C@@H](O)[C@H](O[C@@H]5OC[C@@H](O)[C@H](O)[C@H]5O)[C@H]4O)[C@@H](O)[C@H]3O)[C@@H](O)[C@@H]2O)O[C@@H](C)[C@H](O)[C@H]1OC(=O)/C(=C/CC[C@](C)(O)C=C)CO [GLEDITSIA SAPONIN C] | 34.9 | – | – | – | – | 4.76
4.82 | C=CC(C)(O)CC/C=C(\CO)C(=O)O[C@H]1[C@H](O)[C@@H](COC(=O)/C(C)=C/CC[C@](C)(O)C=C)O[C@@H](OC(=O)[C@]23CCC(C)(C)C[C@H]2C2=CC[C@@H]4[C@@]5(C)CC[C@H](O[C@@H]6O[C@H](CO[C@@H]7OC[C@H](O)[C@H](O)[C@H]7O[C@@H]7OC[C@@H](O)[C@H](O)[C@H]7O)[C@@H](O)[C@H](O)[C@H]6O)C(C)(C)[C@@H]5CC[C@@]4(C)[C@]2(C)CC3)[C@@H]1O[C@@H]1O[C@@H](C)[C@H](O[C@@H]2OC[C@@H](O)[C@H](O[C@@H]3OC[C@@H](O)[C@H](O)[C@H]3O)[C@H]2O)[C@@H](O)[C@H]1O (stereo not given in full) | 9.84 | – | – | – | – | 4.87
4.57 | CC(=O)Oc1cc(CCOC(=O)CCc2ccc(O)c(OC(C)=O)c2)ccc1O | 39.8 | – | – | – | – | 5.07
3.93 | CC(C)=CCC[C@@H](C)[C@H]1CC[C@]2(C)[C@@H]1[C@H](O)C[C@@H]1[C@@]3(C)CC[C@H](O)C(C)(C)[C@@H]3[C@@H](O)C[C@]12C | 49.4 | – | – | – | – | 4.30
4.37 | C=CC(C)(O)CC/C=C(\CO)C(=O)O[C@H]1[C@H](OC[C@H]2O[C@@H](OC(=O)[C@]34CCC(C)(C)C[C@H]3C3=CC[C@@H]5[C@@]6(C)CC[C@H](O[C@@H]7O[C@H](CO[C@@H]8OC[C@H](O)[C@H](O)[C@H]8O[C@@H]8OC[C@@H](O)[C@H](O)[C@H]8O)[C@@H](O)[C@H](O)[C@H]7O)C(C)(C)[C@@H]6CC[C@@]5(C)[C@]3(C)C[C@H]4O)[C@H](O[C@@H]3O[C@@H](C)[C@H](O[C@@H]4OC[C@@H](O)[C@H](O[C@@H]5OC[C@@H](O)[C@H](O)[C@H]5O)[C@H]4O)[C@@H](O)[C@H]3O)[C@@H](O)[C@@H]2O)O[C@@H](C)[C@H](O)[C@H]1OC(=O)/C(C)=C/CC[C@@](C)(O)C=C (stereo not given in full) | 29.2 | – | – | – | – | 4.52
4.09 | C/C=C(\C)C(=O)O[C@H]1[C@H](O)[C@]2(COC(C)=O)[C@H](O)C[C@]3(C)C(=CC[C@@H]4[C@@]5(C)CC[C@H](O[C@@H]6O[C@H](C(=O)O)[C@@H](O[C@@H]7O[C@H](CO)[C@@H](O)[C@H](O)[C@H]7O)[C@H](O)[C@H]6O[C@@H]6O[C@H](CO)[C@@H](O)[C@H](O)[C@H]6O)[C@](C)(CO)[C@@H]5CC[C@]43C)[C@@H]2CC1(C)C [ISOESCIN IA] | 61.1 | – | – | – | – | 4.26

More lines, now with the values behind:

SMILES | pIC50 (U-251 [3]) | viability at 100 µM (U-251 [1]) [%] | viability at 100 µM (C6 [2]) [%] | inhibition (U-251 [3]) | inhibition (C6 [4]) | inhibition (U-87MG ATCC) | pIC50 (C6 [4])
C[C@@H]1O[C@@H](OC[C@H]2O[C@@H](OC(=O)[C@]34CCC(C)(C)C[C@H]3C3=CC[C@@H]5[C@@]6(C)CC[C@H](O[C@@H]7O[C@H](CO[C@@H]8OC[C@H](O)[C@H](O)[C@H]8O)[C@@H](O)[C@H](O)[C@H]7O)C(C)(C)[C@@H]6CC[C@@]5(C)[C@]3(C)C[C@H]4O)[C@H](O[C@@H]3O[C@@H](C)[C@H](O[C@@H]4OC[C@@H](O)[C@H](O[C@@H]5OC[C@@H](O)[C@H](O)[C@H]5O)[C@H]4O)[C@@H](O)[C@H]3O)[C@@H](O)[C@@H]2O)[C@H](O)[C@H](O)[C@H]1O | – | 72.3 | 63.9 | inactive | inactive | inactive | –
CC1(C)CC[C@]2(C(=O)O)CC[C@]3(C)C(=CC[C@@H]4[C@@]5(C)CC[C@H](O[C@@H]6O[C@H](CO[C@@H]7OC[C@H](O)[C@H](O)[C@H]7O[C@@H]7OC[C@@H](O)[C@H](O)[C@H]7O)[C@@H](O)[C@H](O)[C@H]6O)C(C)(C)[C@@H]5CC[C@]43C)[C@@H]2C1 [PITHEDULOSIDE C] | – | 104 | 63 | inactive | inactive | inactive | –
C[C@@H]1O[C@@H](O[C@H]2[C@H](OC(=O)[C@]34CCC(C)(C)C[C@H]3C3=CC[C@@H]5[C@@]6(C)CC[C@H](O[C@@H]7O[C@H](CO[C@@H]8OC[C@H](O)[C@H](O)[C@H]8O[C@@H]8OC[C@@H](O)[C@H](O)[C@H]8O)[C@@H](O)[C@H](O)[C@H]7O)C(C)(C)[C@@H]6CC[C@@]5(C)[C@]3(C)C[C@H]4O)O[C@H](CO)[C@@H](O)[C@@H]2O)[C@H](O[C@@H]2OC[C@@H](O)[C@H](O)[C@H]2O)[C@H](O)[C@H]1O[C@@H]1OC[C@@H](O)[C@H](O[C@@H]2OC[C@@H](O)[C@H](O)[C@H]2O)[C@H]1O | – | 93.6 | 81.6 | inactive | inactive | inactive | –
CC1(C)CC[C@]2(C(=O)O)[C@H](O)C[C@]3(C)C(=CC[C@@H]4[C@@]5(C)CC[C@H](O[C@@H]6O[C@H](CO[C@@H]7OC[C@H](O)[C@H](O)[C@H]7O[C@@H]7OC[C@@H](O)[C@H](O)[C@H]7O)[C@@H](O)[C@H](O)[C@H]6O)C(C)(C)[C@@H]5CC[C@]43C)[C@@H]2C1 | – | 88.8 | 86.2 | inactive | inactive | inactive | –
O=c1c(O)c(-c2ccc(O)c(O)c2)oc2cc(O)cc(O)c12 [QUERCETIN] | 4.11 | 62.9 | – | – | – | – | 4.74
CC(C)=CCC[C@](C)(O[C@@H]1O[C@H](CO)[C@@H](O)[C@H](O)[C@H]1O)[C@H]1CC[C@]2(C)[C@@H]1[C@H](O)C[C@@H]1[C@@]3(C)CC[C@H](O[C@@H]4O[C@H](CO)[C@@H](O)[C@H](O)[C@H]4O[C@@H]4O[C@H](CO)[C@@H](O)[C@H](O)[C@H]4O)C(C)(C)[C@@H]3[C@@H](O)C[C@]12C | – | 94.5 | 97.5 | – | – | – | –
O=C(/C=C/c1ccc(O)c(O)c1)O[C@H]1[C@H](O)C[C@@](O)(C(=O)O)C[C@H]1O | – | 52.8 | 133 | – | – | – | –
O=C(CCc1ccc(O)c(O)c1)OCCc1ccc(O)c(O)c1 | 4.61 | 55 | – | – | – | – | 5.21
CC1(C)CC[C@]2(C(=O)O)[C@H](O)C[C@]3(C)C(=CC[C@@H]4[C@@]5(C)CC[C@H](O)C(C)(C)[C@@H]5CC[C@]43C)[C@H]2C1 [ECHINOCYSTIC ACID] | – | 33.7 | 52.3 | – | – | – | –
